Experimental findings from PMC10101059, “Rational Design of Stapled Antimicrobial Peptides to Enhance Stability and In Vivo Potency against Polymicrobial Sepsis” (Microbiology Spectrum, 2023) are described below.

Converted amounts (≈) assume the structure as drawn. Read-outs that look alike come from different tables or passages of the source. Bridge positions count the residues as written; N and C are the ends. Square brackets hold non-standard residues; d marks the D form. Peptide text beside a SMILES is read from it. R5 = C=CCCC[C@@](C)(N)C(=O)O

In one series the test system is Acinetobacter baumannii. As to the kind of experiment: microbe, parasite or virus in culture. The class given is cell-based. As to conditions: for MBC: read-out: MBC; for MIC: read-out: MIC. Here is the method:
The antimicrobial assay was performed according to a modified National Committee for Clinical Laboratory Standards (NCCLS) protocol ([41], [42]). Briefly, 5 × 10^5 CFU/mL bacterial cells were treated with various peptide concentrations and incubated at 37 ± 2°C for 16 to 20 h. The lowest concentration with clear wells was recorded as the MIC for each test molecule. The clear wells were further plated in Mueller-Hinton agar (MHA) plates, followed by incubation overnight at 37 ± 2°C. After plating, the lowest concentration at which no growth was observed was recorded as the MBC. For the serum sensitivity assay, the antimicrobial activity of the peptides was tested in medium containing 50% human serum ([43], [44]). The antimicrobial assay was performed in the presence of physiological ions and glucose. The test media were supplemented with MgCl2 (1 mM), CaCl2 (2 mM), NaCl (150 mM), KCl (4.5 mM), NH4Cl (6 μM) ([45], [46]), or glucose (0.2%) ([47]), followed by routine antimicrobial assay as described previously. For the pH sensitivity assay, the antimicrobial assay was performed in media adjusted to pH values ranging from 4 to 12. To estimate the effects of temperature on antimicrobial activity, the peptide was incubated for 1 h at temperatures ranging from 40 to 100°C ([48]), followed by the antimicrobial assay as described above.

The next series concerns Enterobacter aerogenes. Nature of the series: microbe, parasite or virus in culture. It counts as cell-based. The essentials: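 Broth microdilution per modified NCCLS protocol: 5 × 10^5 CFU/mL bacteria exposed to serial peptide concentrations, 37 ± 2°C for 16 to 20 h. MIC = lowest concentration giving clear wells; clear wells plated on Mueller-Hinton agar overnight at 37 ± 2°C, MBC = lowest concentration with no growth. Serum sensitivity tested in medium with 50% human serum.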

Series [1] deals with A. baumannii. Nature of the series: Bacterial killing kinetics. As to conditions: at respective MBC. The class given is cell-based, Acinetobacter baumannii. Here is the method: Mid-log-phase A. baumannii (5 × 10^5 CFU/mL) bacterial cells were treated with the test candidates at appropriate bactericidal concentrations, followed by incubation at 37°C. The treated bacterial cells were plated in MHA to determine the bacterial killing rate as a function of time ([52]).

For another series, the system named is Staphylococcus aureus. It counts as cell-based. Here is the method: The antimicrobial assay was performed according to a modified National Committee for Clinical Laboratory Standards (NCCLS) protocol ([41], [42]). Briefly, 5 × 10^5 CFU/mL bacterial cells were treated with various peptide concentrations and incubated at 37 ± 2°C for 16 to 20 h. The lowest concentration with clear wells was recorded as the MIC for each test molecule. The clear wells were further plated in Mueller-Hinton agar (MHA) plates, followed by incubation overnight at 37 ± 2°C. After plating, the lowest concentration at which no growth was observed was recorded as the MBC. For the serum sensitivity assay, the antimicrobial activity of the peptides was tested in medium containing 50% human serum ([43], [44]).

A further series has as its system human red blood cells. It counts as cell-based. Here is the method: The hemolytic assay was performed after approval from the institutional ethics committee (Academia Sinica Institutional Review Board [IRB]; ID no. AS-IRB02-111075). Blood was collected from healthy humans, and 50 μL of a 2% blood cell suspension in normal saline was treated with an equal volume of peptide at different concentrations. The mixture was then incubated at 37 ± 2°C for 1 h. Next, the cell suspension was centrifuged at 1,000 × g for 10 min. Percent hemolysis was estimated by the absorbance of treated and control supernatant samples at 540 nm ([23], [44]).

Series [2] deals with A. baumannii. Nature of the series: PI membrane permeabilization assay. The class given is cell-based, Acinetobacter baumannii. As to conditions: 25 μM, 10^8 CFU/mL. The method, then:
Mid-log-phase bacterial cells (A. baumannii) were resuspended in 10 mM PBS (pH 7.4) to a density of 10^8 CFU/mL. The cell suspension was supplemented with 25 mM glucose followed by 15 min incubation at 37°C. After the incubation, N-phenyl-1-naphthylamine dye was added to a final concentration of 10 μM. Next, 90 μL of bacterial cells was transferred to a 96-well black plate, and fluorescence was recorded for 40 min (excitation/emission: 350/420 nm). […] After this treatment, fluorescence was recorded for an additional 20 min ([53]). Data are presented as fluorescence values as a function of time. Permeabilization of blank- and test compound-treated cells was compared. For the PI membrane permeabilization assay, 10^8 bacterial cells (A. baumannii) were resuspended in MHB containing 20 μg/mL PI. […] Fluorescence was read (excitation/emission: 584/620 nm). Fluorescence values of blank- and compound-treated cells were graphed as a function of time ([54], [55]).

Series [3] concerns A. baumannii. As to the kind of experiment: SEM and TEM analysis. It counts as cell-based, Acinetobacter baumannii. To be noted: 1× MIC. Here is the method:
The treated suspension was washed twice with 10 mM PBS (pH 7.4) followed by treatment with 4% glutaraldehyde. Next, the suspension was incubated for 30 min at 4°C. Following the incubation, the treated suspension was centrifuged (5,000 × g, 10 min), and the pellet was placed on a glass slide and allowed to attach for 30 min. The glass slide was then subjected to gradient ethanol washing from 0% to 100% ethanol. Finally, the glass slides were dried and coated with gold for imaging ([55]). For TEM, glutaraldehyde samples were cryoimmobilized and subjected to TEM imaging ([58], [59]).

Where [4] appears, read: 24 h pre-incubation in 50% human serum.
Setting [5] is: Acinetobacter baumannii, 1 h, agent pre-exposed to 40°C for 1 h.
The mark [6] stands for this setting: Acinetobacter baumannii, 1 h, agent pre-exposed to 60°C for 1 h.
Where [7] appears, read: Acinetobacter baumannii, 1 h, agent pre-exposed to 80°C for 1 h.
Where [8] appears, read: Acinetobacter baumannii, preincubation in 50% human serum 2 h.
Setting [9] is: Acinetobacter baumannii, preincubation in 50% human serum 6 h.
Setting [10] is: Acinetobacter baumannii, preincubation in 50% human serum 12 h.
Where [11] appears, read: Acinetobacter baumannii, preincubation in 50% human serum 24 h.
Setting [12] is: Klebsiella aerogenes, MHB medium.

In turn, `C[C@@H](O)[C@H]1C(=O)N2C(C(=O)O)=C(S[C@@H]3CN[C@H](C(=O)N(C)C)C3)[C@H](C)[C@H]12` [Meropenem] came in with a reduction of activity with Acinetobacter baumannii (setting [4]) of 2 fold. For the same molecule, the MBC in the series on Acinetobacter baumannii (setting [5]) is 6.25 µM (≈ 2.4 µg/mL); with Acinetobacter baumannii (setting [6]), 6.25 µM (≈ 2.4 µg/mL); in the series with Acinetobacter baumannii (setting [7]), 12.5 µM (≈ 4.79 µg/mL); in the series on Acinetobacter baumannii (Acinetobacter baumannii, 1 h, agent pre-exposed to 100°C for 1 h) it was > 25 µM; in the series on Acinetobacter baumannii (setting [8]) it was 6.25 to 12.5 µM (≈ 2.4 to 4.79 µg/mL); in the series on Acinetobacter baumannii (setting [9]), 6.25 to 12.5 µM (≈ 2.4 to 4.79 µg/mL). Also, the figures for the MBC with Acinetobacter baumannii (setting [10]), in the series with Acinetobacter baumannii (setting [11]) and in the series with Enterobacter aerogenes (setting [12]) were 12.5 µM (≈ 4.79 µg/mL), 25 µM (≈ 9.59 µg/mL) and 0.39 µM (≈ 0.15 µg/mL), respectively. In addition, the MIC with Acinetobacter baumannii (setting [5]) was 6.25 µM (≈ 2.4 µg/mL); with Acinetobacter baumannii (setting [6]) it was 6.25 µM (≈ 2.4 µg/mL); with Acinetobacter baumannii (setting [7]), 12.5 µM (≈ 4.79 µg/mL); with Acinetobacter baumannii (setting [8]), 6.25 µM (≈ 2.4 µg/mL); in the series on Acinetobacter baumannii (setting [9]), 6.25 µM (≈ 2.4 µg/mL); in the series on Acinetobacter baumannii (setting [10]), 6.25 µM (≈ 2.4 µg/mL). Besides, the MIC was 12.5 µM (≈ 4.79 µg/mL) in the series on Acinetobacter baumannii (setting [11]); > 25 µM with Acinetobacter baumannii (Acinetobacter baumannii, agent pre-exposed to 100°C for 1 h); 0.39 µM (≈ 0.15 µg/mL) with Enterobacter aerogenes (setting [12]). Further, in the series on A. baumannii [1] (within 8 h), the “reduction of the bacterial population” value is “approximately half”.

In the case of `CC[C@H](C)[C@H](NC(=O)[C@@H](NC(=O)[C@@H](N)Cc1ccccc1)[C@@H](C)CC)C(=O)N[C@]1(C)CCCC=CCCC[C@](C)(C(=O)NCC(=O)N[C@@H](CC(C)C)C(=O)N[C@@H](Cc2ccccc2)C(=O)N[C@@H](CCCCN)C(=O)N[C@@H](CCCCN)C(=O)N[C@@H](CCCCN)C(=O)N[C@@H](C)C(=O)NCC(=O)N[C@@H](C)C(=O)N[C@]2(C)CCCC=CCCC[C@](C)(C(=O)N[C@H](C(=O)N[C@@H](CCCCN)C(=O)N[C@@H](CCCCN)C(=O)O)[C@@H](C)CC)NC(=O)[C@H](CCCCN)NC(=O)[C@H](CCCCN)NC(=O)[C@H](CCCCN)NC2=O)NC(=O)[C@H](CO)NC(=O)[C@H](CCCCN)NC(=O)[C@H](CCCCN)NC1=O` [TP4-3] (H-FII[R5]KKS[R5]GLFKKKAGA[R5]KKK[R5]IKK-OH; staple 4-8, 18-22; N-terminus and C-terminus assumed), the MBC in the series on Staphylococcus aureus is >25 µM; in the series on Acinetobacter baumannii (pH 6) it was 12.5 µM (≈ 36.1 µg/mL); in the series with Acinetobacter baumannii (pH 7.4), 3.13 µM (≈ 9.05 µg/mL); in the series with Acinetobacter baumannii (pH 8) it was 3.13 µM (≈ 9.05 µg/mL); in the series with Acinetobacter baumannii (pH 10), 3.13 µM (≈ 9.05 µg/mL); in the series with Enterobacter aerogenes, 25 µM (≈ 72.3 µg/mL). Besides, the MIC is >25 µM in the series on Staphylococcus aureus; 12.5 µM (≈ 36.1 µg/mL) in the series with Acinetobacter baumannii (pH 6); 3.13 µM (≈ 9.05 µg/mL) in the series with Acinetobacter baumannii (pH 7.4); 3.13 µM (≈ 9.05 µg/mL) in the series with Acinetobacter baumannii (pH 8); 0.78 µM (≈ 2.25 µg/mL) with Acinetobacter baumannii (pH 10); 25 µM (≈ 72.3 µg/mL) in the series on Enterobacter aerogenes. Further, the reduction of activity in the series on Acinetobacter baumannii (12 h pretreatment in 50% human serum) turned out to be 2 fold; in the series on Acinetobacter baumannii (setting [4]), 4 fold. Also, the “reduction of activity (MBC)” value with Acinetobacter baumannii (in pH 6) is recorded as 4 fold. Besides, the lower bactericidal potency in the series with Acinetobacter baumannii (media supplemented with CaCl2) is recorded as ≤ 8 fold; with Acinetobacter baumannii (media supplemented with MgCl2), “up to 4 fold”. Moreover, the “lowered bactericidal potency (MBC)” value in the series on Acinetobacter baumannii (media supplemented with NaCl, KCl, or NH4Cl vs non-supplemented medium) is “up to 2 fold”. Moreover, in the series with human red blood cells, the 15% hemolysis concn was >100 µM. Also, the “time to clear the entire bacterial load” value with A. baumannii [1] was ≤ 8 h. In addition, in the series with A. baumannii [2], the “PI fluorescence signal vs controls” value is on record as “approximately 3 fold”. Also, the “bacterial membrane architecture (SEM, TEM)” value with A. baumannii [3] is “significant membrane deformation”.
